Key:
Experiment in all cases: Kinase panel (mobility shift)
Assay type in all cases: biochemical
PDGFR-a = PDGFR-a (Homo sapiens, UniProt P16234)
Method: (§1) The disclosed compounds were tested for activity against a panel of 299 kinases. The target enzyme was incubated with fluorescently labeled substrate and test compounds in a standardized reaction mixture in 384 well plates. Upon termination of the reaction, samples were introduced onto microfluidic chips. The samples migrated through channels in the chips and product and substrate were separated based on the difference in their charge (electrophoretic mobility shift). Enzyme activity was measured by direct comparison of the fluorescence in the product and substrate peaks. […] In the tables A=95% or greater at 5 um, B=90%-94% at 5 um, and C=80%-89% at 5 um. [note to draft: we included category D for 50-79 and category E is less than 50%. Feel free to remove if not needed)

P38-b = P38-b (Homo sapiens, UniProt Q15759)
Method: as §1

EPH-B4 = target: T1, EPH-B4 (Homo sapiens, UniProt P54760)
T1 sequence (P54760 16-987): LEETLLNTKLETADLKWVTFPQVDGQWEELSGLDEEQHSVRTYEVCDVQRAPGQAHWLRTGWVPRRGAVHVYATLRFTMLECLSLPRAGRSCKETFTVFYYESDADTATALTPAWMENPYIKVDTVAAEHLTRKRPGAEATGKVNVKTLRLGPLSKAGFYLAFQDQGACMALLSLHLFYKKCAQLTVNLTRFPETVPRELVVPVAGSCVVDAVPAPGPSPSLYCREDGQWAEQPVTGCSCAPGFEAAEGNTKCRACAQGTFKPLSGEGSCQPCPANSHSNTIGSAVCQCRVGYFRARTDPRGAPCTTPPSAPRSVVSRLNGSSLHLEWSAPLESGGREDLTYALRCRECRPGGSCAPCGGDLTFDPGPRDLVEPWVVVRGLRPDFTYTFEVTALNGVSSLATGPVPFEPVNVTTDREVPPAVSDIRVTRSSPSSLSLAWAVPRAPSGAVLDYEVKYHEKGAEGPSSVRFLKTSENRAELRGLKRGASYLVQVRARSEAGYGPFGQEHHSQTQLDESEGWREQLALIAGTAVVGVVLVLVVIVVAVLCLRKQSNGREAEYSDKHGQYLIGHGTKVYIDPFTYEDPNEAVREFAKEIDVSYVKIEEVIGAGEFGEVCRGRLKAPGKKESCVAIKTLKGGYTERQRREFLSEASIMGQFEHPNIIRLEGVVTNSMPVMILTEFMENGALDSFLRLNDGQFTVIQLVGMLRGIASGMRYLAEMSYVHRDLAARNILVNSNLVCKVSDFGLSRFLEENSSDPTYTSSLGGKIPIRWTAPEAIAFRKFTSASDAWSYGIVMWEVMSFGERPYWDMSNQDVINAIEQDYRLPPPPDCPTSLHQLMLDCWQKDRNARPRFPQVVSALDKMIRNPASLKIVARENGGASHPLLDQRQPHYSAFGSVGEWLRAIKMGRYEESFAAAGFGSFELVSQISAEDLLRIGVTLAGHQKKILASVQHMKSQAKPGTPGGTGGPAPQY
Method: as §1

EPH-A6 = target: T2, EPH-A6 (Homo sapiens, UniProt Q9UF33)
T2 sequence (Q9UF33 23-1036): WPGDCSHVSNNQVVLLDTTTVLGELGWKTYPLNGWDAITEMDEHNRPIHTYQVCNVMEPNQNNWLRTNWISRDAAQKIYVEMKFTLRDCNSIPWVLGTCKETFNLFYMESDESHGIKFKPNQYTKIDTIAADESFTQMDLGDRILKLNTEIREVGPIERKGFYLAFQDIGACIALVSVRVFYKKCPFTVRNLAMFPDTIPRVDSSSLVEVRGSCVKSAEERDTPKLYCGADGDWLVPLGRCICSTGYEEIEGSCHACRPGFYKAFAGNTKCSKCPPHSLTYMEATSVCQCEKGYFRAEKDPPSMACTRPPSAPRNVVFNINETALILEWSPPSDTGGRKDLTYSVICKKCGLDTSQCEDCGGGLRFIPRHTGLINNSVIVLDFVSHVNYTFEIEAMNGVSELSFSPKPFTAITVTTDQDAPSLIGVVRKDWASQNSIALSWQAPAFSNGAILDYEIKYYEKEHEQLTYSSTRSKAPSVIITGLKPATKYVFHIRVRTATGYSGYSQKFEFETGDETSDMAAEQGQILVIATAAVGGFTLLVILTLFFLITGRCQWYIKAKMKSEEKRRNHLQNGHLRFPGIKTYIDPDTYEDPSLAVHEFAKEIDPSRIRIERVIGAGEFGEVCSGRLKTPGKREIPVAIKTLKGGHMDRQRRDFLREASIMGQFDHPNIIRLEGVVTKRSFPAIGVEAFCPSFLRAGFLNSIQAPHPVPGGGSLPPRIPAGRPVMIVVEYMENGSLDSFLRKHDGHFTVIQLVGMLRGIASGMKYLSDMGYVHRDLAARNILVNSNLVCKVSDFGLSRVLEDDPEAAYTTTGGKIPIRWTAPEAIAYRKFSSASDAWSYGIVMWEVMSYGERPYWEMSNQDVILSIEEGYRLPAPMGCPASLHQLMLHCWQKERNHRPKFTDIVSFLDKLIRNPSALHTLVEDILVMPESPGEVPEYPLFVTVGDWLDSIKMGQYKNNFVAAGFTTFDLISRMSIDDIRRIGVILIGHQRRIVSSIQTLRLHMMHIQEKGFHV
Method: as §1

RIPK2 = RIPK2 (Homo sapiens, UniProt O43353)
Method: as §1

Sequence of PDGFR-a (P16234 24-1089, species assumed): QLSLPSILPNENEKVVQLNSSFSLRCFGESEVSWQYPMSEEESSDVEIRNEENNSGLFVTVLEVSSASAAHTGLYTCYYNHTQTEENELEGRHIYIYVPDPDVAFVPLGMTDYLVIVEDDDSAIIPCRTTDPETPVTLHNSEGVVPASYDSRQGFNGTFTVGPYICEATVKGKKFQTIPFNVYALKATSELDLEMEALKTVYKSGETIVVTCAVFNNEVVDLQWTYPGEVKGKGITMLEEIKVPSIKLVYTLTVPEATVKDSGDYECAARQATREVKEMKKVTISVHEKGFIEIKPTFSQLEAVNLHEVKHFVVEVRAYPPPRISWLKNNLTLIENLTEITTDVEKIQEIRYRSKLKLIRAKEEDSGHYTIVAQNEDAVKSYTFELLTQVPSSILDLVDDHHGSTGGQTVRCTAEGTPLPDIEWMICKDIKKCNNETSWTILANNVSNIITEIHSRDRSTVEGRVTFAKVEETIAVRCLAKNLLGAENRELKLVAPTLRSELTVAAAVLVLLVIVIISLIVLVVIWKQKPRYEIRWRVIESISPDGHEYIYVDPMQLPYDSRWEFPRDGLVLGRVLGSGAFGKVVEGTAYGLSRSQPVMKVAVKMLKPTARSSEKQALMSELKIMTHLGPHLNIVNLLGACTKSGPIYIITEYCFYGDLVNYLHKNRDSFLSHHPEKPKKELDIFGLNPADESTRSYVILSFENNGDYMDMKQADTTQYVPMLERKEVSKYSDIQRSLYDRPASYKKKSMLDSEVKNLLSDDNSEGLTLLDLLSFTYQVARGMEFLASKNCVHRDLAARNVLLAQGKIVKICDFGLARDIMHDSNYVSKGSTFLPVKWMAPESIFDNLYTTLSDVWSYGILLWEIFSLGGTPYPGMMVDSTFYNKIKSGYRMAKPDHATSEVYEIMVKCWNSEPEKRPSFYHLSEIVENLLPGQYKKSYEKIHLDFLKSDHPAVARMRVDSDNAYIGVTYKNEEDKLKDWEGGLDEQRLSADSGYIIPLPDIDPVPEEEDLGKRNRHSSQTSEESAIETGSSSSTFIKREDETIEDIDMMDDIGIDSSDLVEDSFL
Sequence of P38-b (Q15759 whole entry, species assumed): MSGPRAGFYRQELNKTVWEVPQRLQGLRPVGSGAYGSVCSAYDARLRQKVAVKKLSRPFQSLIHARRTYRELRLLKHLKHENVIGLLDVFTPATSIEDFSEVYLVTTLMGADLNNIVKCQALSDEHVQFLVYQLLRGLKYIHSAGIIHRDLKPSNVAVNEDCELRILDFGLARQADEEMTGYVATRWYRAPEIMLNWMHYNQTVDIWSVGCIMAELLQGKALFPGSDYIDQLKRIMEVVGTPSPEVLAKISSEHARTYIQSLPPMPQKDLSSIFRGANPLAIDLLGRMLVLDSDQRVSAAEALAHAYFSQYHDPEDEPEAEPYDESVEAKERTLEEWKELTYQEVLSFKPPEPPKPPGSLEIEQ
Sequence of RIPK2 (O43353 whole entry, species assumed): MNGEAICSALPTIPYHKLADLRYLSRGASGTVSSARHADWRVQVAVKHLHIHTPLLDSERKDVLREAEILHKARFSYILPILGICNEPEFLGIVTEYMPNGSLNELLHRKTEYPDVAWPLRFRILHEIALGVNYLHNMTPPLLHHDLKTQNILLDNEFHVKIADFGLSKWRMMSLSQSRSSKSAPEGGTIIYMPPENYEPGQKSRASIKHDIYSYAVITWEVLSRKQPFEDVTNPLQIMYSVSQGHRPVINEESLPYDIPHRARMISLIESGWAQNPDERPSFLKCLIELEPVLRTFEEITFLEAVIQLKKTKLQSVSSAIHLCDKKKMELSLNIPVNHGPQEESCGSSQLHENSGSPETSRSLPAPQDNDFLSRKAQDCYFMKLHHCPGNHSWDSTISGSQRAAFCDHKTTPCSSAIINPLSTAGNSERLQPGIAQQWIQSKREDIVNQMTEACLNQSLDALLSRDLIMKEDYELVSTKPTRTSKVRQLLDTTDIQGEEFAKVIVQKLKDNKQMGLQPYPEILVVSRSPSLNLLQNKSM

Compound	inhibition at 5 µM (PDGFR-a)	inhibition at 5 µM (P38-b)	inhibition at 5 µM (EPH-B4)	inhibition at 5 µM (EPH-A6)	inhibition at 5 µM (RIPK2)
CSc1nc(C(=O)Nc2ccc(Oc3ccnc(N)c3Cl)c(F)c2)c(-c2ccc(F)cc2)o1 [Compound 1]	< 50%	< 50%	< 50%	< 50%	< 50%
CNC(=O)c1cc(Oc2ccc(NC(=O)c3nc(SC)oc3-c3ccc(F)cc3Cl)cc2)ccn1 [Compound 3]	50 to 79%	< 50%	< 50%	50 to 79%	90 to 94%
CNC(=O)c1cc(Oc2ccc(NC(=O)c3nc(SC)oc3-c3ccc(F)c(F)c3)cc2)ccn1 [Compound 4]	< 50%	50 to 79%	< 50%	50 to 79%	80 to 89%
CNC(=O)c1cc(Oc2ccc(NC(=O)c3nc(SC)oc3-c3ccc(F)cc3F)cc2)ccn1 [Compound 6]	< 50%	< 50%	< 50%	≥ 95%	≥ 95%
CNC(=O)c1cc(Oc2ccc(NC(=O)c3nc(SC)oc3-c3ccc(OC)cc3)cc2)ccn1 [Compound 7]	< 50%	< 50%	< 50%	< 50%	< 50%
CNC(=O)c1cc(Oc2ccc(NC(=O)c3nc(S(C)(=O)=O)sc3-c3ccc(F)cc3)cc2F)ccn1 [Compound 13]	50 to 79%	< 50%	50 to 79%	≥ 95%	80 to 89%
CNC(=O)c1cc(Oc2ccc(NC(=O)c3nc(NC)oc3-c3ccc(F)cc3)cc2F)ccn1 [Compound 14]	< 50%	< 50%	50 to 79%	80 to 89%	90 to 94%
CNC(=O)c1cc(Oc2ccc(NC(=O)c3nc(OC)oc3-c3ccc(F)cc3)cc2F)ccn1 [Compound 15]	50 to 79%	< 50%	50 to 79%	90 to 94%	80 to 89%
CNC(=O)c1cc(Oc2ccc(NC(=O)c3nc(NC)oc3-c3ccc(F)s3)cc2F)ccn1 [Compound 17]	< 50%	< 50%	< 50%	< 50%	< 50%

Results, then the molecule that gave them:

inhibition at 5 µM (PDGFR-a)	inhibition at 5 µM (P38-b)	inhibition at 5 µM (EPH-B4)	inhibition at 5 µM (EPH-A6)	inhibition at 5 µM (RIPK2)	Compound
< 50%	50 to 79%	< 50%	50 to 79%	< 50%	CSc1nc(C(=O)Nc2ccc(Oc3cc4cnn(C)c4cc3Br)c(F)c2)c(-c2ccc(F)cc2)o1 [Compound 2]
< 50%	< 50%	< 50%	50 to 79%	50 to 79%	CNC(=O)c1cc(Oc2ccc(NC(=O)c3nc(SC)oc3-c3ccc(Cl)s3)cc2)ccn1 [Compound 5]
90 to 94%	80 to 89%	80 to 89%	≥ 95%	50 to 79%	CSc1nc(C(=O)Nc2ccc(Oc3ccnc(-c4cnn(C)c4)c3)c(F)c2)c(-c2ccc(F)cc2)o1 [Compound 11]
< 50%	< 50%	50 to 79%	80 to 89%	90 to 94%	CNC(=O)c1cc(Oc2ccc(NC(=O)c3nc(SC)oc3-c3ccc(F)cc3F)cc2F)ccn1 [Compound 12]
< 50%	< 50%	< 50%	50 to 79%	< 50%	CNC(=O)c1cc(Oc2ccc(NC(=O)c3nc(SC)oc3-c3ccc(F)s3)cc2F)ccn1 [Compound 16]
50 to 79%	< 50%	50 to 79%	80 to 89%	50 to 79%	CNC(=O)c1cc(Oc2c(F)cc(NC(=O)c3nc(NC)sc3-c3ccc(F)cc3)cc2F)ccn1 [Compound 19]

From patent US11629143B2, “HipK4 inhibitors and uses thereof” (Vibliome Therapeutics, LLC, priority 2020, dated 2023)
